Source: BindingDB's records for doi:10.1124/jpet.104.068320 (Actelion Pharmaceuticals, 2004)

Target: T1, Urotensin-2 receptor (Rattus norvegicus, UniProt P49684)
T1 sequence (P49684 whole entry): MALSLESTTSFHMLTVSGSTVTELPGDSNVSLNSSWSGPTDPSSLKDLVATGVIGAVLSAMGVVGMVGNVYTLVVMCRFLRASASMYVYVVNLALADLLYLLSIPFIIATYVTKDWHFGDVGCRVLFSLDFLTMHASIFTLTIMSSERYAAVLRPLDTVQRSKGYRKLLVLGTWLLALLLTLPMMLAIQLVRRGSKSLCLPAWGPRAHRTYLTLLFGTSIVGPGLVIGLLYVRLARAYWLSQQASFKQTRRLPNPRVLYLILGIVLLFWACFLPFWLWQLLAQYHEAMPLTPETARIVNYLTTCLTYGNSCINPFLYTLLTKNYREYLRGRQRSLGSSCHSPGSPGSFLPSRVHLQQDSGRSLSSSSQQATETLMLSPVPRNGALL

- Ki: 1470 nM
SMILES: Cc1cc(NC(=O)NCCN2CCC(O)(Cc3ccccc3)CC2)c2ccccc2n1 [ACT-058362]
